Assay results from patent publication US20260317304A1, “TEAD INHIBITORS AND METHODS OF USE” (Sporos BioDiscovery, Inc., priority 2022, published 2026).
“Also recorded” adds a separate entry of the source.

Columns and labels:
[1] = tested on: TEAD; conditions: control compounds; cited from earlier work
[2] = tested on: TEAD isoforms 1-4; experiment: TEAD thermal shift assay (TSA), outcome in words; assay type: binding, human
From the text: (§1) Thermal shift assay (TSA) is a biophysical method to evaluate stability of proteins with change in temperature. The assay measures thermal denaturation temperature in varying conditions such as different drug concentration. For this example, fluorogenic dye was used that bind to unfolded proteins. SYPRO Orange binds non-specifically to hydrophobic surfaces, and water strongly quenches its fluorescence. When the protein unfolds, the exposed hydrophobic surfaces bind the dye, resulting in an increase in fluorescence by excluding water. Detergent micelles also bind the dye and increase background noise dramatically. Binding of small molecules to proteins leads to a stabilization against to thermal denaturation with the degree of thermal stabilization proportional to the strength of binding.
(§2) The study described in this example investigated the change in melting temperature (ΔTm) of TEAD isoforms 1-4 when treated with TEAD inhibitors.
(§3) Tris-HCL was dissolved in 5 mL of Cell culture grade water and allowed to dissolve completely. The pH was adjusted to 8 using NaOH. Additional assay buffer components were added in the order listed above. The buffer was mixed slowly.
(§4) Assay buffer was prepared according to the procedures outlined above and dispensed into test wells. Spyro orange was added to a concentration of 5× in the assay buffer, followed by test compound stock solution which was added to a concentration of 10 μM or 30 μM in the assay buffer.
(§5) The melt cycle was performed in Bio-RAD PCR instrument from 20-95° C. with ramp rate of 1° C./min.

[3] = tested on: MSTO-211H xenograft; experiment: Mouse xenograft MSTO-211H tumors compared to prior art TEAD inhibitor; assay type: in vivo, BALB/c nude mice; conditions: 7 days of treatment, PO BID, 3 mg/kg Compound 1-1
Experimental: This study evaluated the in vivo anti-tumor efficacy of test compounds in BALB/c nude mice for treatment of MSTO-211H xenograft of lung cancer.
The MSTO-211H tumor cells were maintained in vitro in RPMI 1640 medium supplemented with 10% Fetal bovine serum and 1% Antibiotic-Antimycotic at 37° C. in an atmosphere of 5% CO2 in air. The tumor cells were routinely subcultured twice weekly by trypsin-EDTA. The cells growing in an exponential growth phase were harvested and counted for tumor inoculation.
Each mouse was inoculated subcutaneously at the right flank with MSTO-211H tumor cells (10×10^6+50% matrigel/0.2 mL) for tumor development. Test subjects received vehicle (e.g., 0.5% CMC-Na+1% Tween80) beginning on day 7 after cell inoculation. […]
The major endpoint was to determine if the tumor growth could be delayed. Tumor size was measured twice a week in two dimensions using a caliper, and the volume was expressed in mm^3 using the formula: V=0.5 a×b^2 where a and b are the long and short diameters of the tumor, respectively. […]
Summary statistics, including mean and the standard error of the mean (SEM), were calculated for the tumor volume of each group at each time point. […]
One-tailed T test was performed to compare tumor volumes between two groups. All data were analyzed using GraphPad Prism 6.0. p<0.05 was considered to be statistically significant.

[4] = as reported by Tang et al.; cited from earlier work
[5] = target: TEAD2 (Homo sapiens, UniProt Q15562); experiment: TEAD thermal shift assay (TSA); assay type: binding
Chain of TEAD2 (Homo sapiens, UniProt Q15562) (Q15562 whole entry): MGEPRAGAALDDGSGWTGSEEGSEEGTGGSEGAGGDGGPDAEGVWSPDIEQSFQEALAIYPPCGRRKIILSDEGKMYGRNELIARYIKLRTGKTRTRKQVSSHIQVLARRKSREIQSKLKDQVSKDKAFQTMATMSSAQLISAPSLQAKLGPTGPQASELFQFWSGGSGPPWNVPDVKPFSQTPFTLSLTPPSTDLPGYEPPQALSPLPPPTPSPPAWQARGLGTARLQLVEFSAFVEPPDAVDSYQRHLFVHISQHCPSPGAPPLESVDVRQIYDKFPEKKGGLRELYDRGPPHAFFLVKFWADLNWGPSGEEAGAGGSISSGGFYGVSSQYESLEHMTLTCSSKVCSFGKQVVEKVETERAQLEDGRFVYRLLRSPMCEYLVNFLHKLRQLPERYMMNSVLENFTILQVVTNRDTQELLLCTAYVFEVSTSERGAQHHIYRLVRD
From the text: as §1, §2, §3, §4, §5

[6] = target: TEAD4 (Homo sapiens, UniProt Q15561); experiment: TEAD thermal shift assay (TSA); assay type: binding
Chain of TEAD4 (Homo sapiens, UniProt Q15561) (Q15561 whole entry): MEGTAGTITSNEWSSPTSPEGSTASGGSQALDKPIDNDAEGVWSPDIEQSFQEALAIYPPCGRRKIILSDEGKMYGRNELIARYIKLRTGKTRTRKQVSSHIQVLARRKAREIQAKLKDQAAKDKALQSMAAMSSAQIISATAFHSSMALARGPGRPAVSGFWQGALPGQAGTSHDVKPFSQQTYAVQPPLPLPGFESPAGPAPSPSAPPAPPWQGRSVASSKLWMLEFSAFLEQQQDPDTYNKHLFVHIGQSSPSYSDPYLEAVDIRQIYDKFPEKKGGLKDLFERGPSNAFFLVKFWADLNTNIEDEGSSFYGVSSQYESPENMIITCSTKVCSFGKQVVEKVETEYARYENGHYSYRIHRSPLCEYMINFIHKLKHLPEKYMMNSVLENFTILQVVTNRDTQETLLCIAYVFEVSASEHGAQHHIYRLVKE
From the text: as §1, §2, §3, §4, §5

[7] = target: TEAD3 (Homo sapiens, UniProt Q99594); experiment: TEAD thermal shift assay (TSA); assay type: binding
Chain of TEAD3 (Homo sapiens, UniProt Q99594) (Q99594 whole entry): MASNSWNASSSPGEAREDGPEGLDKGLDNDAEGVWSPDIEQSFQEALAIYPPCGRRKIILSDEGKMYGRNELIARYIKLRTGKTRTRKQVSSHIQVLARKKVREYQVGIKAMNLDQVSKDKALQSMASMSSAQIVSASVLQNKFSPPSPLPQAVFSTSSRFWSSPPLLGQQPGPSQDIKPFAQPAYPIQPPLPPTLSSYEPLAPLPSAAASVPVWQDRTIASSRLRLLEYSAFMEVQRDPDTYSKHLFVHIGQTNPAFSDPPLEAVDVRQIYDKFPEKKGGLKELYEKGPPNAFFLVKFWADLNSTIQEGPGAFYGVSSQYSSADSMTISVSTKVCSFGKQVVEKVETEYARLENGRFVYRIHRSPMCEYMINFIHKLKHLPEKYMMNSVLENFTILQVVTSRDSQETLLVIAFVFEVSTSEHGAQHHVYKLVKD
From the text: as §1, §2, §3, §4, §5

[8] = tested on: SDM103T2 cells; experiment: SDM103T2 proliferation and cell viability assay (CTG); assay type: cell-based; conditions: 144 hours
Experimental: SDM103T2 cells were trypsinised, counted and plated at 800 cells/well in 200 μl of growth media in 96 well flat bottom tissue culture treated plates. The plated cells were incubated overnight at 37° C., 5% CO2 before being treated with compounds in triplicate for each assay point. 50 μl of the serially diluted compound was added to each well giving a final DMSO concentration of 0.5% per well and a total volume of 250 μl per well. The treated cells were incubated for 144 hours (6 days) at 37° C., 5% CO2. Following compound treatment the remaining viable cells were detected using the Promega CellTiter-Glo 2.0 assay as follows: 150 μl of media was removed from each of the wells to be assayed and 100 μl of room temperature CellTiter-Glo 2.0 reagent was added. The plate was placed on an orbital shaker at 500 rpm at room temperature for 2 minutes, and then incubated without shaking for a further 10 minutes at room temperature. 150 μl of cell lysate was removed from each well and dispensed into a single well of a white opaque 96 well plate. Luminescence at 545 nm was read using a BMG CLARIOstar plate reader. The luminescent signal was directly proportional to number of viable cells, the percent of viable cells relative to the DMSO control was then calculated for each assay point. Percent viability relative to DMSO control was plotted against compound concentration and a curve fitted with non-linear regression in GraphPad Prism software. EC50 and absolute IC50 values were calculated using GraphPad Prism software as follows: For EC50 values a non-constrained four-parameter logistic curve fit was used (Sigmoidal, 4PL, X is concentration). For Absolute IC50 values the baseline was constrained to Y=0 and top at 100 (Absolute IC50, X is concentration). Area Under the Curve (AUC): Prism computes area-under-the-curve by the trapezoidal method. The analysis sees a fitted curve as simply a series of connected XY points. Prism simply computes the area under the “curve” defined by connecting the points by straight lines. The units of the AUC are the units of the Y axis times units of the X axis.
For EC50 data, the symbol “A” indicates a value of less than 0.2 μM; the symbol “B” indicates a value in the range of from 0.2 μM up to 1 μM; and the symbol “C” indicates a value of greater than 1 μM.

[9] = tested on: NCI-H226 cells; experiment: Proliferation and cell viability assay, Cell Titer One; assay type: cell-based, human; conditions: Homo sapiens, NCI-H226, 144 h, Cell Titer One assay, 6 days
Experimental: (§6) Cell proliferation of a TEAD dependent NF2-null mesothelioma cell line, NCI-H226 was assayed using two different protocols. Results were confirmed in two different TEAD-non-dependent lung cancer cell lines, H23 and H28, were used as non-responsive controls, as indicated:
b) Cell Titer One (Promega, #G3582). The effect of the TEAD inhibitors disclosed herein on cell proliferation was also determined using the Promega Substrate Cell Titer Aqueous One Solution Reagent. The TEAD inhibitors were evaluated for the effects on cell proliferation responder (H226) and non-responder negative control cancer cell lines (CAMA1, H28), as well as non-transformed normal human cells (HUVEC, NHDF). Dissociated cells were resuspend in media (depending on cell line, either in DMEM, RPMI, or EMEM all with 10% FBS, with gentamicin as an antibiotic). Cells were seeded at 100 μL/well at 750 cells per well in 96-well plates and allowed to settle and attach. After an incubation of 24 hrs (37° C., 5% CO2, humidified incubator), 100 μL of test compound-containing media was added. A dilution series of 2000× concentrated stock of test compounds was prepared in DMSO, for final concentrations from 0.1 to 10,000 nM. After addition of test compound-containing media, cells were incubated for 6 days at 37° C., 5% CO2, humidified incubators). To measure cell density, 20 μL of Promega Substrate Cell Titer 96 Aqueous One Solution Reagent (Promega, #G3582) to each well was added according to the manufacturer's instructions. Plates were incubated at 37° C. for usually 3-8 hrs, to reach in the control cells (without compound) an OD of 1.5 at 490 nm. The OD was measured using Vmax [Molecular Devices] spectrophotometer plate reader. Media only-wells were used as background controls and cell densities normalized to DMSO vehicle control. EC50 were taken as the concentration achieving 50% of maximal growth inhibition.
(§7) For IC50 and EC50 data “A” indicates a value of less than 0.2 μM; the symbol “B” indicates a value in the range of from 0.2 μM up to 1 μM; and the symbol “C” indicates a value of greater than 1 μM. ND: no data.

[10] = tested on: NCI-H226 cells; experiment: Proliferation and cell viability assay, CellTiter-Glo 2.0 (CTG); assay type: cell-based, human; conditions: Homo sapiens, NCI-H226, responder cell line, 144 hrs
Experimental: as §6
a) CellTiter-Glo® 2.0 (Promega #G9243). The effect of the TEAD inhibitors disclosed herein on cell proliferation was determined in TEAD1-genetically dependent cell line NCI-H226 (responder cell line) and TEAD-independent cell lines (NCI-H23, HEK293T), as non-responder, negative control. Cells were seeded in 96-well plates (Thermo Scientific #167008) in growth media (RPMI-1640, Gibco #61870-010) for NCI-H226 and NCI-H23 or DMEM (Gibco #31966-021, HEK293T) with […] Heat Inactivated Fetal Bovine Serum (Gibco 10500-064) at 800 (NCI-H226 and HEK-293T) or 2000 (NCI-H23) cells per well at 37° C., […], humidified incubator; 24 hours later, fresh growth media containing test compound or DMSO vehicle was added and incubated with the cells for 144 hrs. TEAD inhibitor stocks were made at a 1000× fold excess in DMSO, and a dose response test compound dose range of 10,000 to 0.1 nM was used. Each treatment was carried out in triplicate. After 144 hrs of treatment, relative cell viability numbers were determined using the CellTiter-Glo 2.0 assay following the manufacturer's instructions. Test plates and CellTiter-Glo 2.0 reagent were allowed to equilibrate to room temperature. CellTiter-Glo 2.0 reagent was added at 1:1 reagent to media ratio to the 96-well cell plates, plates were placed on a plate shaker for 2 minutes and then incubated at room temperature for a further 10 minutes to allow complete cell lysis to occur. The mix was then transferred to white, 96-well luminometer assay plates (Greiner Bio One #655075). Luminescence was quantified using a CLARIOStar Plus multi-mode plate reader (BMG Labtech) in luminescence detection mode with the recommended settings (ultra-Glo pre-set: emission 545-50 nm with autofocus and enhanced dynamic range on). Relative cell density was expressed as a function of inhibitor concentration, with respect to DMSO-only control wells. Data where plotted using GraphPad Prism and IC50 values for the biological effect were calculated using the EC50 non-linear fit function using a sigmoidal, 4-parameter logistic, least squares fit with no constraints.
as §7

[11] = tested on: NCI-H23 cells; experiment: as above; assay type: cell-based; conditions: Homo sapiens, non-responder cell line, 144 hrs
Experimental: as §6
a) CellTiter-Glo® 2.0 (Promega #G9243). The effect of the TEAD inhibitors disclosed herein on cell proliferation was determined in TEAD1-genetically dependent cell line NCI-H226 (responder cell line) and TEAD-independent cell lines (NCI-H23, HEK293T), as non-responder, negative control. […] After 144 hrs of treatment, relative cell viability numbers were determined using the CellTiter-Glo 2.0 assay following the manufacturer's instructions. […] Luminescence was quantified using a CLARIOStar Plus multi-mode plate reader (BMG Labtech) in luminescence detection mode with the recommended settings (ultra-Glo pre-set: emission 545-50 nm with autofocus and enhanced dynamic range on). Relative cell density was expressed as a function of inhibitor concentration, with respect to DMSO-only control wells. Data where plotted using GraphPad Prism and IC50 values for the biological effect were calculated using the EC50 non-linear fit function using a sigmoidal, 4-parameter logistic, least squares fit with no constraints. […]

[12] = tested on: TEAD2; conditions: thermal shift; cited from earlier work
[13] = tested on: TEAD3; conditions: thermal shift; cited from earlier work
[14] = tested on: TEAD1; conditions: thermal shift; cited from earlier work
[15] = tested on: TEAD4; conditions: thermal shift; cited from earlier work
[16] = tested on: TEAD isoforms 1-4; conditions: thermal shift data of Tang and Post; cited from earlier work
[17] = target: TEAD1 (Homo sapiens, UniProt P28347); experiment: TEAD thermal shift assay (TSA); assay type: binding
Chain of TEAD1 (Homo sapiens, UniProt P28347) (P28347 whole entry): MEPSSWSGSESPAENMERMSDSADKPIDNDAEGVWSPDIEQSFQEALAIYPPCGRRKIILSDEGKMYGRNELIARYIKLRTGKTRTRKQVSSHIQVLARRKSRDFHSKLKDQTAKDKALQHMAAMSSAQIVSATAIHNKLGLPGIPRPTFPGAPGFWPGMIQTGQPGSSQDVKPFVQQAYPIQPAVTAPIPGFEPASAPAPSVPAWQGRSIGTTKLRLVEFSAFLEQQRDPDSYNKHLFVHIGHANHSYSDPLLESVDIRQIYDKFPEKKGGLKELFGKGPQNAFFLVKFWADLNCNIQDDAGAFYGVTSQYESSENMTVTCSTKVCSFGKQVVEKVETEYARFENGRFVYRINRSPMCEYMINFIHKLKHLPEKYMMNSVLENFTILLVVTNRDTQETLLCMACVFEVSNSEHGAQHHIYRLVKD
From the text: as §1, §2, §3, §4, §5

[18] = Ratio of Protein to Compound 1:3
[19] = Ratio of Protein to Compound 1:1

## CNS(=O)(=O)c1ccc(Nc2ccc(C(F)(F)F)cc2)c(-c2cn(C)cn2)c1 [Compound 1-1]
[1]
  known TEAD inhibition (in words): known strong TEAD1 and weak TEAD2 inhibitor
[2]
  thermal shift / TEAD binding (in words): pronounced thermal shift only for TEAD1
[3]
  change in tumor volume (in words): Tumor growth was observed
[4]
  half-life (in words): long half-life
[5]; [18]
  TEAD2 ΔTm: 1 °C
[6]; [18]
  TEAD4 ΔTm: 1 °C
[7]; [18]
  TEAD3 ΔTm: 0 °C
[8]
  EC50: < 200 nM

## Cn1cnc(-c2cc(C3(C)CCNC3=O)ccc2Nc2ccc(C(F)(F)F)cc2)c1 (racemic) [Compound 2, 3-methyl-3-(3-(1-methyl-1H-imidazol-4-yl)-4-((4-(trifluoromethyl)phenyl)amino)phenyl) pyrrolidin-2-one]
[9]
  IC50: < 200 nM
[10]
  EC50: < 200 nM
[11]
  IC50: > 1000 nM

## C[C@H](CO)NC(=O)c1ccc2c(Oc3ccc(C(F)(F)F)cc3)cccc2c1 [VT3989]
[12]
  TEAD2 ΔTm: 8.8 °C
[13]
  TEAD3 ΔTm: 8.5 °C
[14]
  TEAD1 ΔTm: 11.6 °C
[15]
  TEAD4 ΔTm: 4.6 °C
[16]
  TEAD isoform interaction / binding (in words): primarily interacts with TEAD1-3; also recorded: lower levels of binding to TEAD4
  selectivity over TEAD2 and 3 (in words): minimal selectivity over TEAD2 and 3

## C[C@H](NC(=O)c1ccc2c(-c3ccc(C(F)(F)F)cc3)cccc2c1)c1cccc(N)n1 [Compound 1-4]
[1]
  known TEAD inhibition (in words): pan-TEAD inhibitor
[2]
  thermal shift / TEAD binding (in words): thermal shifts for all four TEAD isoforms
[5]; [19]
  TEAD2 ΔTm: 2.5 °C
[5]; [18]
  TEAD2 ΔTm: 11 °C
[17]; [19]
  TEAD1 ΔTm: 7.5 °C
[17]; [18]
  TEAD1 ΔTm: 11 °C
[6]; [19]
  TEAD4 ΔTm: 1.5 °C
[6]; [18]
  TEAD4 ΔTm: 11 °C
[7]; [19]
  TEAD3 ΔTm: 3 °C

## Cc1nnc(-c2cc(C3(C)CCNC3=O)ccc2Nc2ccc(C(F)(F)F)cc2)o1 (racemic) [Compound 1, 3-methyl-3-(3-(5-methyl-1,3,4-oxadiazol-2-yl)-4-((4-(trifluoromethyl)phenyl)amino)phenyl) pyrrolidin-2-one]
[9]
  IC50: < 200 nM
[10]
  EC50: < 200 nM
[11]
  IC50: > 1000 nM
